Data on 17 molecules can be found in US8765728B2, “[1,5]-diazocin derivatives” (MelliTech, priority 2009, dated 2014).

In this assay the test system is Min6 cell. In words: Insulin secretion response of beta cell line to formula I compounds (insulin ELISA). The format is cell-based. The following applies: rank according to % increase versus control at most effective dose. An outline of the steps:
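After compound or vehicle exposure, Min6 cells were held 2 h in glucose-free medium and preincubated 30 min at 37° C in glucose-free KRBH (pH 7.4, 0.1% BSA). They were then incubated 30 min at 37° C in KRBH with varying glucose. Secreted insulin and acid-ethanol-extracted intracellular insulin were measured by ELISA.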
Regarding `O=C1CCN(C(=O)Cc2ccc(F)cc2)c2ncccc2CN1CC1CC1` [Compound 150, 5-(cyclopropylmethyl)-1-(2-(4-fluorophenyl)acetyl)-2,3,5,6-tetrahydropyrido[2,3-b][1,5]diazocin-4(1H)-one], the “Insulin secretion (Min6 cell) Range 1 to 5” value (“Insulin secretion” below) is 4 (4: 140-170% of control). For the molecule `Cc1cc(C(=O)N2CCC(=O)N(CC3CC3)Cc3cccnc32)on1` [Compound 151, 5-(cyclopropylmethyl)-1-(3-methylisoxazole-5-carbonyl)-2,3,5,6-tetrahydropyrido[2,3-b][1,5]diazocin-4(1H)-one], the “Insulin secretion” value is 1 (1: 90-110% of control). For `O=C1CCN(C(=O)c2cnccn2)c2ncccc2CN1CC1CC1` [Compound 152, 5-(cyclopropylmethyl)-1-(pyrazine-2-carbonyl)-2,3,5,6-tetrahydropyrido[2,3-b][1,5]diazocin-4(1H)-one], the “Insulin secretion” value was 3 (3: 120-140% of control). On to `O=C1CCN(C(=O)c2cccnc2)c2ncccc2CN1CC1CC1` [Compound 153, 5-(cyclopropylmethyl)-1-nicotinoyl-2,3,5,6-tetrahydropyrido[2,3-b][1,5]diazocin-4(1H)-one], for which the “Insulin secretion” value is on record as 3 (3: 120-140% of control). On to `CC(C)(C)C(O)CN1CCC(=O)N(C2CCCC2)Cc2cc(F)ccc21` (centres unmarked) [Compound 154, 5-cyclopentyl-8-fluoro-1-(2-hydroxy-3,3-dimethylbutyl)-2,3,5,6-tetrahydrobenzo[b][1,5]diazocin-4(1H)-one], for which the “Insulin secretion” value is listed as 1 (1: 90-110% of control).

Take `COc1ccc2c(c1)CN(CC=C(C)C)C(=O)CCN2C(=O)c1ccno1` [Compound 156, 1-(isoxazole-5-carbonyl)-8-methoxy-5-(3-methylbut-2-enyl)-2,3,5,6-tetrahydrobenzo[b][1,5]diazocin-4(1H)-one]: the “Insulin secretion” value is listed as 1 (1: 90-110% of control).

As for `CCC#CCN1Cc2ccccc2N(C(=O)c2ccno2)CCC1=O` [Compound 158, 1-(isoxazole-5-carbonyl)-5-(pent-2-ynyl)-2,3,5,6-tetrahydrobenzo[b][1,5]diazocin-4(1H)-one], the “Insulin secretion” value is reported as 1 (1: 90-110% of control).

As for `O=C1CCN(C(=O)c2ccno2)c2cc3c(cc2CN1CC1CC1)OCO3` [Compound 159, 9-(cyclopropylmethyl)-5-(isoxazol-5-ylcarbonyl)-6,7,9,10-tetrahydro[1,3]dioxolo[4,5-i][1,5]benzodiazocin-8(5H)-one], the “Insulin secretion” value was 1 (1: 90-110% of control).

Consider `COc1ccc2c(c1)CN(C1CC1)C(=O)CCN2C(=O)C1CCC1` [Compound 160, 1-(cyclobutanecarbonyl)-5-cyclopropyl-8-methoxy-2,3,5,6-tetrahydrobenzo[b][1,5]diazocin-4(1H)-one], for which the “Insulin secretion” value is on record as 1 (1: 90-110% of control). Turning to `O=C1CCNc2cc3c(cc2CN1C1CCCC1)OCO3` [Compound 161, 9-cyclopentyl-6,7,9,10-tetrahydro[1,3]dioxolo[4,5-i][1,5]benzodiazocin-8(5H)-one], the “Insulin secretion” value is listed as 1 (1: 90-110% of control). Take `CC(C)(C)OCC(O)CN1CCC(=O)N(C2CC2)Cc2cc3c(cc21)OCO3` (centres unmarked) [Compound 162, 5-(3-tert-butoxy-2-hydroxypropyl)-9-cyclopropyl-6,7,9,10-tetrahydro[1,3]dioxolo[4,5-i][1,5]benzodiazocin-8(5H)-one]: the “Insulin secretion” value is reported as 1 (1: 90-110% of control).

`CCN1Cc2ccccc2N(CC(C)O)CCC1=O` (centres unmarked) [Compound 163, 5-ethyl-1-(2-hydroxypropyl)-2,3,5,6-tetrahydrobenzo[b][1,5]diazocin-4(1H)-one]: the “Insulin secretion” value is reported as 1 (1: 90-110% of control). For the molecule `CCN1Cc2cc(F)ccc2N(CC(O)C(C)(C)C)CCC1=O` (centres unmarked) [Compound 166, 5-ethyl-8-fluoro-1-(2-hydroxy-3,3-dimethylbutyl)-2,3,5,6-tetrahydrobenzo[b][1,5]diazocin-4(1H)-one], the “Insulin secretion” value is on record as 1 (1: 90-110% of control). The figure for `C=CCOc1c(OC)ccc2c1CN(CC)C(=O)CCN2CC(O)COc1ccccc1` (centres unmarked) [Compound 167, 7-(allyloxy)-5-ethyl-1-(2-hydroxy-3-phenoxypropyl)-8-methoxy-2,3,5,6-tetrahydrobenzo[b][1,5]diazocin-4(1H)-one] is 2 (2: 110-120% of control); for `O=C1CCN(C[C@@H](O)COCc2ccccc2)c2ccc(F)cc2CN1C1CCCC1` [Compound 168, (R)-1-(3-(benzyloxy)-2-hydroxypropyl)-5-cyclopentyl-8-fluoro-2,3,5,6-tetrahydrobenzo[b][1,5]diazocin-4(1H)-one] it is 4 (4: 140-170% of control); for `C=CCOc1c(OC)ccc2c1CN(CC1CC1)C(=O)CCN2C(=O)c1ccno1` [Compound 169, 7-(allyloxy)-5-(cyclopropylmethyl)-1-(isoxazole-5-carbonyl)-8-methoxy-2,3,5,6-tetrahydrobenzo[b][1,5]diazocin-4(1H)-one] it is 4 (4: 140-170% of control). In the case of “ethyl 2-(4-oxo-1,2,3,4-tetrahydrobenzo[b][1,5]diazocin-5(6H)-yl)acetate [Compound 155]”, the “Insulin secretion” value is given as 1 (1: 90-110% of control).
